Test results as given in patent US20230157952A1, “METHOD FOR IMPROVING THE STABILITY OF A PHARMACEUTICAL COMPOSITION COMPRISING A HIGH PENETRATION DRUG, AND THE PHARMACEUTICAL COMPOSITION OBTAINED THEREFROM” (Techfields Inc., priority 2020, published 2023).

Tests used:
[1] = Effect of temperature (and pH) on the stability of the solution (purity); assay type: physicochemical; conditions: 7% solution in water
[2] = Effect of concentration on the stability of the solution (purity over time); conditions: in water at 25° C.

- Stability of the solution at a temperature higher than 40° C. and a pH lower than 3 or greater than 6 [1]: not stable
- Purity at Day 3 ([2]; 0.01 wt %): 83.8%
- Purity at Day 7 ([2]; 0.01 wt %): 73.9%
- Purity at Day 14 ([2]; 0.01 wt %): 58.9%
- Purity at Day 21 ([2]; 0.01 wt %): 47.6%
- Purity at Day 28 ([2]; 0.01 wt %): 38.9%
- Purity at hr 0 ([2]; 0.01 wt %): 97.8%
- Purity at Day 3 ([2]; 0.1 wt %): 94.7%
- Purity at Day 7 ([2]; 0.1 wt %): 90.6%
- Purity at Day 14 ([2]; 0.1 wt %): 83.5%
- Purity at Day 21 ([2]; 0.1 wt %): 75.7%
- Purity at Day 28 ([2]; 0.1 wt %): 65.5%
- Purity at hr 0 ([2]; 0.1 wt %): 97.9%
- Purity at Day 3 ([2]; 1 wt %): 95.3%
- Purity at Day 7 ([2]; 1 wt %): 92.9%
- Purity at Day 14 ([2]; 1 wt %): 88.9%
- Purity at Day 21 ([2]; 1 wt %): 84.6%
- Purity at Day 28 ([2]; 1 wt %): 79.2%
- Purity at hr 0 ([2]; 1 wt %): 98.0%
- Purity at Day 3 ([2]; 3 wt %): 96.3%
- Purity at Day 7 ([2]; 3 wt %): 95.1%
- Purity at Day 14 ([2]; 3 wt %): 92.5%
- Purity at Day 21 ([2]; 3 wt %): 89.0%
- Purity at Day 28 ([2]; 3 wt %): 85.7%
- Purity at hr 0 ([2]; 3 wt %): 98.4%
- Purity at Day 3 ([2]; 5 wt %): 98.2%
- Purity at Day 7 ([2]; 5 wt %): 97.8%
- Purity at Day 14 ([2]; 5 wt %): 97.0%
- Purity at Day 21 ([2]; 5 wt %): 96.3%
- Purity at Day 28 ([2]; 5 wt %): 95.0%
- Purity at hr 0 ([2]; 5 wt %): 98.5%
- Purity at Day 3 ([2]; 7 wt %): 98.6%
- Purity at Day 7 ([2]; 7 wt %): 98.2%
- Purity at Day 14 ([2]; 7 wt %): 98.0%
- Purity at Day 21 ([2]; 7 wt %): 97.7%
- Purity at Day 28 ([2]; 7 wt %): 97.4%
- Purity at hr 0 ([2]; 7 wt %): 98.8%
- Purity at Day 3 ([2]; 8 wt %): 98.7%
- Purity at Day 7 ([2]; 8 wt %): 98.3%
- Purity at Day 14 ([2]; 8 wt %): 97.9%
- Purity at Day 21 ([2]; 8 wt %): 97.7%
- Purity at Day 28 ([2]; 8 wt %): 97.5%
- Purity at hr 0 ([2]; 8 wt %): 98.7%
- Purity at Day 3 ([2]; 10 wt %): 98.6%
- Purity at Day 7 ([2]; 10 wt %): 98.5%
- Purity at Day 14 ([2]; 10 wt %): 98.2%
- Purity at Day 21 ([2]; 10 wt %): 97.8%
- Purity at Day 28 ([2]; 10 wt %): 97.4%
- Purity at hr 0 ([2]; 10 wt %): 98.8%
- Purity at Day 3 ([2]; 15 wt %): 98.7%
- Purity at Day 7 ([2]; 15 wt %): 98.4%
- Purity at Day 14 ([2]; 15 wt %): 98.1%
- Purity at Day 21 ([2]; 15 wt %): 97.9%
- Purity at Day 28 ([2]; 15 wt %): 97.5%
- Purity at hr 0 ([2]; 15 wt %): 98.8%
- Purity at Day 3 ([2]; 20 wt %): 98.7%
- Purity at Day 7 ([2]; 20 wt %): 98.5%
- Purity at Day 14 ([2]; 20 wt %): 98.2%
- Purity at Day 21 ([2]; 20 wt %): 97.8%
- Purity at Day 28 ([2]; 20 wt %): 97.5%
- Purity at hr 0 ([2]; 20 wt %): 98.7%
- Purity at Day 3 ([2]; 30 wt %): 98.7%
- Purity at Day 7 ([2]; 30 wt %): 98.5%
- Purity at Day 14 ([2]; 30 wt %): 98.3%
- Purity at Day 21 ([2]; 30 wt %): 97.9%
- Purity at Day 28 ([2]; 30 wt %): 97.6%
- Purity at hr 0 ([2]; 30 wt %): 98.8%
- Purity at Day 3 ([2]; 50 wt %): 98.7%
- Purity at Day 7 ([2]; 50 wt %): 98.5%
- Purity at Day 14 ([2]; 50 wt %): 98.2%
- Purity at Day 21 ([2]; 50 wt %): 97.8%
- Purity at Day 28 ([2]; 50 wt %): 97.5%
- Purity at hr 0 ([2]; 50 wt %): 98.8%
- Stability when the concentration is 0.1% or lower [2]: not stable
SMILES: CCN(CC)CCOC(=O)CCc1nc(-c2ccccc2)c(-c2ccccc2)o1.Cl [2-(diethylamino)ethyl 4,5-diphenyl-2-oxazolepropionate•HCl]
